≈ marks a conversion by molar mass, not a printed value. Like-named read-outs stand apart in the source and are kept apart here.
Key:
hepatitis C virus = conditions: patients, minimum dose, within a few days (1-2 days in some cases); cited from earlier work
[1] = tested on: HepG2 (human hepatoma cells); assay: MTT assay, in vitro inhibition of proliferation of human tumor cells; format: cell-based; conditions: for IC50: Homo sapiens, HepG2, 72 h; for HepG2 100 μg/ml IC %: inhibition at 100 μg/ml, 72 h
Method: (§1) The tumor cell lines used in the experiments were as follows: A549 (human lung cancer cells), HCT116 (human colon cancer cells), HepG2 (human hepatoma cells), ZR-75-30 (human breast cancer cell), purchased from Shanghai Institute of Pharmaceutical Industry.
(§2) The sample was dissloved in DMSO (Merck), and PBS was added to prepare a 1000 μg/mL of solution or a uniform suspension. And then, DMSO-containing PBS (−) was added to dilute the solution or suspension. The positive control medicaments were gemcitabine (GEM) and LY2334737 developed by Eli Lilly and Company.
(§3) MTT assay: 100 μL cell suspension (4˜5×10^4 cells/mL) was added into each well of 96-well plate, and cultured in 37° C., 5% CO2 incubator. After 24 h, the sample solution was added in duplicate, 10 μL/well, and incubated at 37° C., 5% CO2 for 72 h. 20 μL MTT solution (5 mg/mL) was added into each well. After 4 h, a dissolving solution was added, 100 μL/well. The plate was placed into the incubator. After dissolved, OD value at 570 nm was measured on MK-2 automatic microplate reader.

[2] = tested on: HCT116 (human colon cancer cells); assay: as above; format: cell-based; conditions: for IC50: Homo sapiens, HCT-116, 72 h; for HCT116 100 μg/ml IC %: inhibition at 100 μg/ml, 72 h
Method: as §1, §2, §3

[3] = tested on: A549 (human lung cancer cells); assay: as above; format: cell-based; conditions: for IC50: Homo sapiens, A549, 72 h; for A549 100 μg/ml IC %: inhibition at 100 μg/ml, 72 h
Method: as §1, §2, §3

[4] = tested on: ZR-75-30 (human breast cancer cell); assay: as above; format: cell-based; conditions: for IC50: Homo sapiens, ZR-75-30, 72 h; for ZR-75-30 100 μg/ml IC %: inhibition at 100 μg/ml, 72 h
Method: as §1, §2, §3

[5] = tested on: human colon cancer cells HCT116 xenografts; assay: In vivo antitumor activity test, xenografts in nude mice; conditions: dosed 0.1-10 mg/kg body weight, better than LY2334737 at the same dose
Method: Some of the compounds were tested in vivo using human colon cancer cells HCT116 xenografts in nude mice according to a literature method (Wei Hong, Medical Laboratory Animal Science, Sichuan Science and Technology Press, 2nd edition, Chengdu, 2001, 595-596).

NCI 60 human tumor cells = assay: NCI in vitro cytotoxic activity screening; format: cell-based; conditions: for GI50: Homo sapiens, derived from MGM; for MGM: NCI 60 human tumor cells, GI50 in M (log)
Method: The cytotoxic activities of Compounds SYN-141 and SYN-165 were assayed in NCI systemactically.

IC50 [1] [µg/mL]	IC50 [2] [µg/mL]	IC50 [3] [µg/mL]	IC50 [4] [µg/mL]	melting point [°C]	SMILES	reduction of hepatitis C viral load (hepatitis C virus) [logarithmic unit]	HepG2 100 μg/ml IC % [1] [%]	HCT116 100 μg/ml IC % [2] [%]	A549 100 μg/ml IC % [3] [%]	ZR-75-30 100 μg/ml IC % [4] [%]	in vivo antitumor activity [5]	GI50 (NCI 60 human tumor cells; read-out: total average GI50 against 60 human tumor cell lines) [nM]	MGM (NCI 60 human tumor cells)	GI50 (NCI 60 human tumor cells; read-out: total average GI50 against 60 human tumor cells) [nM]
84.4 (≈ 253 µM)	0.395 (≈ 1.19 µM)	4.26 (≈ 12.8 µM)	3.01 (≈ 9.03 µM)	198	CCCC(=O)Nc1ccn([C@@H]2O[C@H](CO)C(O)C2(F)F)c(=O)n1 (stereo partly drawn) [SYN-140, N^4-n-butyryl gemcitabine]		50.42	87.79	64.84	89.52	potent in vivo antitumor activity			
7.2 (≈ 17.6 µM)	0.269 (≈ 0.657 µM)	5.6 (≈ 13.7 µM)	4.7 (≈ 11.5 µM)	111	O=C(CCCc1ccccc1)Nc1ccn([C@@H]2O[C@H](CO)C(O)C2(F)F)c(=O)n1 (stereo partly drawn) [SYN-141, N^4-(4-phenyl)butyryl Gemcitabine]		62.48	92.46	56.38	91.63	potent in vivo antitumor activity	620	−6.21	
0.246 (≈ 0.708 µM)	0.193 (≈ 0.556 µM)	7.82 (≈ 22.5 µM)	1.13 (≈ 3.25 µM)	184	CCCCC(=O)Nc1ccn([C@@H]2O[C@H](CO)C(O)C2(F)F)c(=O)n1 (stereo partly drawn) [SYN-147, N^4-n-valeryl Gemcitabine Gemcitabine]		59.49	88.14	58.09	90.22	potent in vivo antitumor activity			
0.123 (≈ 0.316 µM)	0.154 (≈ 0.395 µM)	42.5 (≈ 109 µM)	0.135 (≈ 0.347 µM)	139	CCCCCCCC(=O)Nc1ccn([C@@H]2O[C@H](CO)C(O)C2(F)F)c(=O)n1 (stereo partly drawn) [SYN-165, N^4-n-octanoyl Gemcitabine]		77.90	99.01	55.82	96.30	potent in vivo antitumor activity		−7.12	75.8

The remaining lines, values behind:

SMILES	IC50 [1] [µg/mL]	IC50 [2] [µg/mL]	IC50 [3] [µg/mL]	IC50 [4] [µg/mL]	melting point [°C]	reduction of hepatitis C viral load (hepatitis C virus) [logarithmic unit]	HepG2 100 μg/ml IC % [1] [%]	HCT116 100 μg/ml IC % [2] [%]	A549 100 μg/ml IC % [3] [%]	ZR-75-30 100 μg/ml IC % [4] [%]	in vivo antitumor activity [5]	GI50 (NCI 60 human tumor cells; read-out: total average GI50 against 60 human tumor cell lines) [nM]	MGM (NCI 60 human tumor cells)	GI50 (NCI 60 human tumor cells; read-out: total average GI50 against 60 human tumor cells) [nM]
Nc1ccn([C@@H]2O[C@H](CO)[C@@H](O)C2(F)F)c(=O)n1 [GEM, gemcitabine]	0.263 (≈ 0.999 µM)	0.0237 (≈ 0.09 µM)	3.74 (≈ 14.2 µM)	0.454 (≈ 1.72 µM)		≥ 2	53.34	78.07	57.57	96.60				
CCCC(CCC)C(=O)Nc1ccn([C@@H]2O[C@H](CO)[C@@H](O)C2(F)F)c(=O)n1 [LY-2334737, N4-valproyl gemcitabine, reference compound]	1.78 (≈ 4.57 µM)	3.81 (≈ 9.78 µM)	18.3 (≈ 46.9 µM)	29.3 (≈ 75.3 µM)			67.52	84.51	60.05	78.36				
